Assay results taken from patent US11117900B2 (Vertex Pharmaceuticals Incorporated, priority 2012, dated 2021).

tested on: HCT116 colorectal cancer cells; experiment: Cisplatin sensitization assay (96 h MTS cell viability); format: cell-based; settings: Cisplatin sensitization value;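 also: compound concentration needed to lower the IC50 of Cisplatin alone by a set fold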
Method in brief: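 HCT116 cells were dosed simultaneously with compound and cisplatin as a full matrix of 2-fold serial dilutions from 10 μM top final concentration. Incubation was 96 h at 37° C., 5% CO2, followed by 1 h with MTS reagent for the viability read-out. Sensitization values were binned into +++, ++ and + categories.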

Structure (SMILES) | Cisplatin Sensitization Assay
CN1CCN2CCN(c3c(F)cncc3NC(=O)c3c(N)nn4cc(F)cnc34)CC2C1=O (stereo not shown) [I-N-240, 2-amino-6-fluoro-N-(5-fluoro-4-(8-methyl-9-oxohexahydro-1H-pyrazino[1,2-a]pyrazin-2(6H)-yl)pyridin-3-yl)pyrazolo[1,5-a]pyrimidine-3-carboxamide] | ++ (Compounds with a Cisplatin sensitization value >0.02 μM but <0.2 μM are marked with “++.”)
Nc1nn2cc(F)cnc2c1C(=O)Nc1cnccc1N1CCN2CCOC[C@H]2C1 [I-N-116, (R)-2-amino-6-fluoro-N-(4-(hexahydropyrazino[2,1-c][1,4]oxazin-8(1H)-yl)pyridin-3-yl)pyrazolo[1,5-a]pyrimidine-3-carboxamide] | ++ (Compounds with a Cisplatin sensitization value >0.02 μM but <0.2 μM are marked with “++.”)
CN(C)C(=O)C1CCN(c2c(F)cncc2NC(=O)c2c(N)nn3cc(F)cnc23)CC1 [I-G-29, 2-amino-N-(4-(4-(dimethylcarbamoyl)piperidin-1-yl)-5-fluoropyridin-3-yl)-6-fluoropyrazolo[1,5-a]pyrimidine-3-carboxamide] | +++ (Compounds with a Cisplatin sensitization value of <0.02 μM are marked with “+++.”)
Nc1nn2cc(F)cnc2c1C(=O)Nc1cnccc1N1CCS(=O)(=O)CC1 [I-N-210, 2-amino-N-(4-(1,1-dioxidothiomorpholino)pyridin-3-yl)-6-fluoropyrazolo[1,5-a]pyrimidine-3-carboxamide] | +++ (Compounds with a Cisplatin sensitization value of <0.02 μM are marked with “+++.”)
Nc1nn2cc(F)cnc2c1C(=O)Nc1cnccc1N1CCC(CN2CCC(F)(F)C2)CC1 [I-N-197, 2-amino-N-(4-(4-((3,3-difluoropyrrolidin-1-yl)methyl)piperidin-1-yl)pyridin-3-yl)-6-fluoropyrazolo[1,5-a]pyrimidine-3-carboxamide] | +++ (Compounds with a Cisplatin sensitization value of <0.02 μM are marked with “+++.”)
CCN1CCN(c2ccncc2NC(=O)c2c(N)nn3cc(F)cnc23)CC1 [I-N-17, 2-amino-N-(4-(4-ethylpiperazin-1-yl)pyridin-3-yl)-6-fluoropyrazolo[1,5-a]pyrimidine-3-carboxamide] | +++ (Compounds with a Cisplatin sensitization value of <0.02 μM are marked with “+++.”)
COCCN1CCN(c2ccncc2NC(=O)c2c(N)nn3cc(Cl)cnc23)CC1 [I-N-60, 2-amino-6-chloro-N-(4-(4-(2-methoxyethyl)piperazin-1-yl)pyridin-3-yl)pyrazolo[1,5-a]pyrimidine-3-carboxamide] | +++ (Compounds with a Cisplatin sensitization value of <0.02 μM are marked with “+++.”)
Nc1nn2cc(F)cnc2c1C(=O)Nc1cncc(F)c1OC1CCN(C2COC2)CC1 [I-O-91, 2-amino-6-fluoro-N-(5-fluoro-4-((1-(oxetan-3-yl)piperidin-4-yl)oxy)pyridin-3-yl)pyrazolo[1,5-a]pyrimidine-3-carboxamide] | ++ (Compounds with a Cisplatin sensitization value >0.02 μM but <0.2 μM are marked with “++.”)
Nc1nn2cc(Cl)cnc2c1C(=O)Nc1cnccc1OCCCO [I-O-53, 2-amino-6-chloro-N-(4-(3-hydroxypropoxy)pyridin-3-yl)pyrazolo[1,5-a]pyrimidine-3-carboxamide] | +++ (Compounds with a Cisplatin sensitization value of <0.02 μM are marked with “+++.”)
Nc1nn2cc(F)cnc2c1C(=O)Nc1cncc(F)c1N1CCC(C(=O)N2CC(N3CCC3)C2)CC1 [I-G-49, N-(4-(4-([1,3′-biazetidine]-1′-carbonyl)piperidin-1-yl)-5-fluoropyridin-3-yl)-2-amino-6-fluoropyrazolo[1,5-a]pyrimidine-3-carboxamide] | +++ (Compounds with a Cisplatin sensitization value of <0.02 μM are marked with “+++.”)
